Data from patent publication US7718767B2, “3-ether and 3-thioether substituted cyclosporin derivatives for the treatment and prevention of hepatitis C infection” (Scynexis, Inc., priority 2006, dated 2010).
Where a name gives a salt, the structure may show the parent alone.

Columns and labels:
HCV RNA replicon ET = test: HCV RNA replicon luciferase reporter assay, antiviral activity; assay type: cell-based; conditions: ET replicon cells, 72 h, LUC activity; for EC90: concentration reducing viral replication by 90%; for EC50: concentration reducing viral replication by 50%
[1] = system: human hepatoma cell line ET; test: Cytotoxicity in the replicon cell line, colorimetric assay of cell numbers; conditions: ET cells, 72 h; for IC50: read-out: Cytotoxicity IC50, concentration inhibiting cell viability by 50%; for IC90: read-out: Cytotoxicity IC90, concentration inhibiting cell viability by 90%
From the text: Compounds were examined in the human hepatoma cell line ET (lub ubi heo/ET), a HCV RNA replicon containing a stable luciferase (LUC) reporter. The HCV RNA replicon ET contains the 5′ end of HCV (with the HCV Internal Ribosome Entry Site (IRES) and the first few amino acids of the HCV core protein) which drives the production of a firefly luciferase (LUC), ubiquitin, and neomycin phosphotransferase (NeoR) fusion protein. Ubiquitin cleavage releases the LUC and NeoR proteins. The EMCV IRES element controls the translation of the HCV […] NS3-NS5. The NS3 protein cleaves the HCV polyprotein to release the mature NS3, NS4A, NS4B, NS5A and NS5B proteins that are required for HCV replication. At the 3′ end of the replicon is the authentic 3′ NTR of HCV. The activity of the LUC reporter is directly proportional to HCV replication levels and positive-control antiviral compounds produce a reproducible antiviral response using the LUC endpoint.
The compounds were dissolved in DMSO at five half-log concentrations each, ranging from either 0.02 to 2.0 μM, 0.03 to 3 μM, […], or 1 to 100 μM. Subconfluent cultures of the ET line were plated out into 96 well plates dedicated for the analysis of cell numbers (cytotoxicity) or antiviral activity and the next day the compounds were added to the appropriate wells. The cells were processed 72 h later when the cells were still subconfluent. […] The activity of the LUC reporter is directly proportional to HCV RNA levels in the human cell line. The HCV-replicon assay was validated in parallel experiments using interferon-alpha-2b as a positive control.

C/C=C/C[C@@H](C)[C@@H](O)[C@H]1C(=O)N[C@@H](CC)C(=O)N(C)C(OC)C(=O)N(C)[C@@H](CC(C)C)C(=O)N[C@@H](C(C)C)C(=O)N(C)[C@@H](CC(C)C)C(=O)N[C@@H](C)C(=O)N[C@H](C)C(=O)N(C)[C@@H](CC(C)C)C(=O)N(C)[C@@H](CC(C)C)C(=O)N(C)[C@@H](C(C)C)C(=O)N1C (stereo partly drawn) [A, 3-methoxycyclosporin]
EC90 (HCV RNA replicon ET): 220 nM | IC50 [1]: 2330 nM | IC90 [1]: > 3000 nM

C/C=C/C[C@@H](C)[C@@H](O)[C@H]1C(=O)N[C@@H](CC)C(=O)N(C)[C@H](OCCN)C(=O)N(C)[C@@H](CC(C)C)C(=O)N[C@@H](C(C)C)C(=O)N(C)[C@@H](CC(C)C)C(=O)N[C@@H](C)C(=O)N[C@H](C)C(=O)N(C)[C@@H](CC(C)C)C(=O)N(C)[C@@H](CC(C)C)C(=O)N(C)[C@@H](C(C)C)C(=O)N1C [Compound B, 3-(2-aminoethoxy)cyclosporin]
EC50 (HCV RNA replicon ET): 1180 nM | EC90 (HCV RNA replicon ET): 2720 nM | IC50 [1]: 6310 nM | IC90 [1]: 20300 nM

C/C=C/C[C@@H](C)[C@@H](O)[C@H]1C(=O)N[C@@H](CC)C(=O)N(C)[C@H](OCCN(C)C)C(=O)N(C)[C@@H](CC(C)C)C(=O)N[C@@H](C(C)C)C(=O)N(C)[C@@H](CC(C)C)C(=O)N[C@@H](C)C(=O)N[C@H](C)C(=O)N(C)[C@@H](CC(C)C)C(=O)N(C)[C@@H](CC(C)C)C(=O)N(C)[C@@H](C(C)C)C(=O)N1C [Compound C, 3-(2-N,N-dimethylaminoethoxy)cyclosporin]
EC50 (HCV RNA replicon ET): 180 nM | EC90 (HCV RNA replicon ET): 640 nM | IC50 [1]: > 3000 nM | IC90 [1]: > 3000 nM

CC=CCC(C)C(O)C1C(=O)NC(CC)C(=O)N(C)C(OCC(CC)CC)C(=O)N(C)C(CC(C)C)C(=O)NC(C(C)C)C(=O)N(C)C(CC(C)C)C(=O)NC(C)C(=O)NC(C)C(=O)N(C)C(CC(C)C)C(=O)N(C)C(CC(C)C)C(=O)N(C)C(C(C)C)C(=O)N1C (stereo not drawn) [Compound E, 3-(2-ethylbutoxy)cyclosporin]
IC50 [1]: 15600 nM

C/C=C/C[C@@H](C)[C@@H](O)[C@H]1C(=O)N[C@@H](CC)C(=O)N(C)C(OCCNC)C(=O)N(C)[C@@H](CC(C)C)C(=O)N[C@@H](C(C)C)C(=O)N(C)[C@@H](CC(C)C)C(=O)N[C@@H](C)C(=O)N[C@H](C)C(=O)N(C)[C@@H](CC(C)C)C(=O)N(C)[C@@H](CC(C)C)C(=O)N(C)[C@@H](C(C)C)C(=O)N1C (stereo partly drawn) [Compound I, 3-[2-(N-methylamino)ethoxy]cyclosporin]
EC50 (HCV RNA replicon ET): 1010 nM | EC90 (HCV RNA replicon ET): 1870 nM | IC50 [1]: 2830 nM | IC90 [1]: 17400 nM

C/C=C/C[C@@H](C)[C@@H](O)[C@H]1C(=O)N[C@@H](CC)C(=O)N(C)[C@H](OCC(C)(C)C)C(=O)N(C)[C@@H](CC(C)C)C(=O)N[C@@H](C(C)C)C(=O)N(C)[C@@H](CC(C)C)C(=O)N[C@@H](C)C(=O)N[C@H](C)C(=O)N(C)[C@@H](CC(C)C)C(=O)N(C)[C@@H](CC(C)C)C(=O)N(C)[C@@H](C(C)C)C(=O)N1C [F, 3-(2,2-dimethylpropoxy)cyclosporin]
EC50 (HCV RNA replicon ET): 17000 nM | IC50 [1]: > 20000 nM

C/C=C/C[C@@H](C)[C@@H](O)[C@H]1C(=O)N[C@@H](CC)C(=O)N(C)C(OCCO)C(=O)N(C)[C@@H](CC(C)C)C(=O)N[C@@H](C(C)C)C(=O)N(C)[C@@H](CC(C)C)C(=O)N[C@@H](C)C(=O)N[C@H](C)C(=O)N(C)[C@@H](CC(C)C)C(=O)N(C)[C@@H](CC(C)C)C(=O)N(C)[C@@H](C(C)C)C(=O)N1C (stereo partly drawn) [G, 3-(2-hydroxyethoxy)cyclosporin]
EC50 (HCV RNA replicon ET): < 200 nM | EC90 (HCV RNA replicon ET): 570 nM | IC50 [1]: 10300 nM | IC90 [1]: > 20000 nM

C/C=C/C[C@@H](C)[C@@H](O)[C@H]1C(=O)N[C@@H](CC)C(=O)N(C)C(OCCN(C)C(C)C)C(=O)N(C)[C@@H](CC(C)C)C(=O)N[C@@H](C(C)C)C(=O)N(C)[C@@H](CC(C)C)C(=O)N[C@@H](C)C(=O)N[C@H](C)C(=O)N(C)[C@@H](CC(C)C)C(=O)N(C)[C@@H](CC(C)C)C(=O)N(C)[C@@H](C(C)C)C(=O)N1C (stereo partly drawn) [J, 3-[2-(N-methyl-N-isopropylamino)ethoxy]cyclosporin]
EC50 (HCV RNA replicon ET): 150 nM | EC90 (HCV RNA replicon ET): 530 nM | IC50 [1]: 8200 nM | IC90 [1]: 19600 nM

CC=CCC(C)C(O)C1C(=O)NC(CC)C(=O)N(C)C(OCCN2CCCCC2)C(=O)N(C)C(CC(C)C)C(=O)NC(C(C)C)C(=O)N(C)C(CC(C)C)C(=O)NC(C)C(=O)NC(C)C(=O)N(C)C(CC(C)C)C(=O)N(C)C(CC(C)C)C(=O)N(C)C(C(C)C)C(=O)N1C (stereo not drawn) [K, 3-[2-(piperidin-1-yl)ethoxy]cyclosporin]
EC50 (HCV RNA replicon ET): 260 nM | EC90 (HCV RNA replicon ET): 590 nM | IC50 [1]: 5500 nM | IC90 [1]: 17800 nM

C/C=C/C[C@@H](C)[C@@H](O)[C@H]1C(=O)N[C@@H](CC)C(=O)N(C)C(OCC)C(=O)N(C)[C@@H](CC(C)C)C(=O)N[C@@H](C(C)C)C(=O)N(C)[C@@H](CC(C)C)C(=O)N[C@@H](C)C(=O)N[C@H](C)C(=O)N(C)[C@@H](CC(C)C)C(=O)N(C)[C@@H](CC(C)C)C(=O)N(C)[C@@H](C(C)C)C(=O)N1C (stereo partly drawn) [M, 3-ethoxycyclosporin]
EC50 (HCV RNA replicon ET): 3350 nM | EC90 (HCV RNA replicon ET): 6110 nM | IC50 [1]: > 20000 nM | IC90 [1]: > 20000 nM

CC=CCC(C)C(O)C1C(=O)NC(CC)C(=O)N(C)C(SCCN(C)C)C(=O)N(C)C(CC(C)(C)O)C(=O)NC(C(C)C)C(=O)N(C)C(CC(C)C)C(=O)NC(C)C(=O)NC(C)C(=O)N(C)C(CC(C)C)C(=O)N(C)C(CC(C)C)C(=O)N(C)C(C(C)C)C(=O)N1C [MeSO2, [(R)-2-(N,N-dimethylamino)ethylthio-Sar]3[4′-hydroxy-MeLeu]4 cyclosporin]
EC50 (HCV RNA replicon ET): 160 nM | EC90 (HCV RNA replicon ET): 500 nM | IC50 [1]: > 2000 nM | IC90 [1]: > 2000 nM

CC=CCC(C)C(O)C1C(=O)NC(CC)C(=O)N(C)C(SCCN(C)C)C(=O)N(C)C(CC(C)(C)O)C(=O)NC(C(C)C)C(=O)N(C)C(CC(C)C)C(=O)NC(C)C(=O)NC(C)C(=O)N(C)C(CC(C)C)C(=O)N(C)C(CC(C)C)C(=O)N(C)C(C(C)C)C(=O)N1C [acetate, [(R)-2-(N,N-dimethylamino)ethylthio-Sar]3[4′-hydroxy-MeLeu]4 cyclosporin]
EC90 (HCV RNA replicon ET): 300 nM | IC50 [1]: > 2000 nM | IC90 [1]: > 2000 nM

CC=CCC(C)C(O)C1C(=O)NC(CC)C(=O)N(C)C(SCCN(C)C)C(=O)N(C)C(CC(C)(C)O)C(=O)NC(C(C)C)C(=O)N(C)C(CC(C)C)C(=O)NC(C)C(=O)NC(C)C(=O)N(C)C(CC(C)C)C(=O)N(C)C(CC(C)C)C(=O)N(C)C(C(C)C)C(=O)N1C [hydrochloride, [(R)-2-(N,N-dimethylamino)ethylthio-Sar]3[4′-hydroxy-MeLeu]4 cyclosporin]
EC50 (HCV RNA replicon ET): 110 nM | EC90 (HCV RNA replicon ET): 380 nM | IC50 [1]: > 2000 nM | IC90 [1]: > 2000 nM

CC=CCC(C)C(O)C1C(=O)NC(CC)C(=O)N(C)C(SCCN(C)C)C(=O)N(C)C(CC(C)(C)O)C(=O)NC(C(C)C)C(=O)N(C)C(CC(C)C)C(=O)NC(C)C(=O)NC(C)C(=O)N(C)C(CC(C)C)C(=O)N(C)C(CC(C)C)C(=O)N(C)C(C(C)C)C(=O)N1C [phosphate, [(R)-2-(N,N-dimethylamino)ethylthio-Sar]3[4′-hydroxy-MeLeu]4 cyclosporin]
EC50 (HCV RNA replicon ET): 130 nM | EC90 (HCV RNA replicon ET): 470 nM | IC50 [1]: > 2000 nM | IC90 [1]: > 2000 nM

[(R)-2-(N,N-dimethylamino)ethylthio-Sar]3[4′-hydroxy-MeLeu]4 cyclosporin [citrate]
EC50 (HCV RNA replicon ET): 110 nM | EC90 (HCV RNA replicon ET): 410 nM | IC50 [1]: > 2000 nM | IC90 [1]: > 2000 nM

[(R)-2-(N,N-dimethylamino)ethylthio-Sar]3[4′-hydroxy-MeLeu]4 cyclosporin [propionate]
EC50 (HCV RNA replicon ET): 100 nM | EC90 (HCV RNA replicon ET): 320 nM | IC50 [1]: > 2000 nM | IC90 [1]: > 2000 nM
